Like-named read-outs stand apart in the source and are kept apart here.
Columns and labels:
[1] = tested on: S. saprophyticus 662; assay: checkerboard titration, gemifloxacin and amoxicillin (MIC, FIC); assay type: cell-based, Staphylococcus saprophyticus
Protocol: The concentration range tested varied for each drug/organism combination to encompass the MIC endpoints of the individual components. […] The last well (H) in column 12 was used as a positive growth control well, containing only medium and test isolate.
The bacteria were diluted to a 0.5 McFarland standard and then further diluted 1/50. Each well was inoculated with 25 μl of the isolate to give a final inoculum density of approximately 5×10^5 cfu/ml. […] After inoculation, the plates were covered with a 96 well microtitre plate lid and incubated at 35° C. in ambient air for 20–24 hours. A 10 μl aliquot of the inoculum was plated on trypticase soy agar containing 5% sheep blood to determine the purity of the final test inoculum.
2) S. saprophyticus 662 was obtained from the SmithKline Beecham Anti-Infectives Research Culture Collection and stored at −80° C. in 10% glycerol. Before testing, the isolate was passaged onto agar plates (trypticase soy agar containing 5% sheeps blood) from the frozen stock for two consecutive days. Cation adjusted Mueller Hinton broth (BBL, Cockeysville, Md.) was used for the isolate.
The combined effect of gemifloxacin and amoxicillin was investigated in S. saprophyticus 662 by using the checkerboard titration method described in Example 1.

[2] = tested on: E. coli ATCC 25922; assay: checkerboard titration, gemifloxacin and cefaclor (MIC, FIC); assay type: cell-based, Escherichia coli
Protocol: Checkerboard microtitre broth dilution plates were prepared using the Hamilton MicroLab AT Plus system (Reno, Nev.). Two-fold serial dilutions (50 μl) of cefotaxime were made in columns 1 through 11 of a microtitre plate. Two-fold serial dilutions of gemifloxacin were prepared manually and the MicroLab AT Plus was used to dispense 25 μl of gemifloxacin at each concentration into rows A through G of the microtitre plate. The concentration range tested varied for each drug/organism combination to encompass the MIC endpoints of the individual components. Column 12 contained two fold serial dilutions of gemifloxacin only, and row H contained two fold serial dilutions of cefotaxie only. The last well (H) in column 12 was used as a positive growth control well, containing only medium and test isolate.
The bacteria were diluted to a 0.5 McFarland standard and then further diluted 1/50. Each well was inoculated with 25 μl of the isolate to give a final inoculum density of approximately 5×10^5 cfu/ml. The MicroLab AT Plus 2 was used to add the inoculum to the microtitre plates. After inoculation, the plates were covered with a 96 well microtitre plate lid and incubated at 35° C. in ambient air for 20–24 hours. A 10 μl aliquot of the inoculum was plated on trypticase soy agar containing 5% sheep blood to determine the purity of the final test inoculum.
Following incubation, a microtitre mirror reader (Cooke Instruments Ltd., England) was used to assist in determining the microdilution MIC endpoints. The MIC was determined as the lowest concentration of compound that inhibited visible growth of the organism.
The Fractional Inhibitory Concentrations (FICs) were calculated using the following formula: (A)/(MICA)+(B)/(MICB)=FICA+FICB=FICIndex wherein: • A is the MIC of drug A in the presence of drug B • B is the MIC of drug B in the presence of drug A • MIC A is the MIC of the organism to drug A alone • MIC B is the MIC of the organism to drug B alone • FIC A is the fractional inhibitory concentration of drug A • FIC B is the fractional inhibitory concentration of drug B
The FIC indices were interpreted using the following criteria: • ≦0.5=Synergy • >0.5–1=Additive • >1–2=Indifference • >2=Antagonism
3) E. coli ATCC 25922 was obtained from the SmithKline Beecham Anti-Infectives Research Culture Collection and stored at −80° C. in 10% glycerol. Before testing, the isolate was passaged onto agar plates (trypticase soy agar containing 5% sheeps blood) from the frozen stock for two consecutive days. […]
The combined effect of gemifloxacin and cefaclor was investigated in E. coli ATCC 25922 by using the checkerboard titration method described in Example 1. FIC Indices were calculated and interpreted as in Example 1.

[3] = tested on: clinically isolated P. aeruginosa strains; assay: checkerboard method, gemifloxacin or ciprofloxacin with ceftazidime, 6 clinical isolates (Example 5); assay type: cell-based, Pseudomonas aeruginosa; details: for FICA: FIC of gemifloxacin; for Cgemifloxacin MIC: in combination with ceftazidime; for MIC: Pseudomonas aeruginosa, drug alone, read-out: gemifloxacin MIC
Protocol: Minimal inhibitory concentrations (MICs) for each separate drug were determined. For wells along the growth-no growth interface, synergy was determined by calculating the Fractional Inhibitory Concentration (FIC) index. The Fractional Inhibitory Concentration (FIC) indices were calculated using the following formula: FICindex=FICA+FICB=[A]/MICA+[B]/MICB • Wherein: • FICA(or B), is the FIC of drug A (or B) MICA (or B) is the MIC of the organism to drug A (or B) • A (or B) is concentration of drug A (or B) that is the lowest inhibitory concentration
The FIC indices were interpreted using the following criteria: • ≦0.5=Synergy • >0.5–1.0=Additive • >1.0–4.0=Indifference • >4.0=Antagonism
The test organisms were clinical isolates collected in Korea. Organisms were frozen at −70 C. prior to testing. […] Gemifloxacin or ciprofloxacin solution was dispensed alone in the first row and combined with ceftazidime in the remaining rows. Ceftazidime as also dispensed alone in the first row in the first column. Test strains of P. aeruginosa were grown for 18 h in Mueller-Hinton broth, and then these overnight cultures were diluted with the same fresh medium to the density of approximately 10^7 CFU/mL. The bacterial concentrations were determined by measuring optical density or turbidity of the suspension and were verified by standard colony counts on antibiotic-free agar plates. A diluted bacterial solution was applied to 96-well plates containing serially diluted antimicrobial agents to yield 5×10^5 CFU/mL. Plates were incubated at 35 C for 18 hours.
MICs for each separate drug were determined, and for wells along the growth-no growth interface, synergy was determined by calculating FIC Indices as in Example 4. FIC Indices were calculated and interpreted as in Example 4.

[4] = drug alone, no unit in this line (other lines μg/ml)

MIC ([1]; Staphylococcus saprophyticus, 662, in presence of amoxicillin 0.125 μg/ml, read-out: gemifloxacin MIC): 0.004 µg/mL
gemifloxacin MIC [1, 4]: 0.016
MIC ([2]; Escherichia coli, ATCC25922, in presence of cefaclor 1 μg/ml, read-out: gemifloxacin MIC): 0.002 µg/mL
gemifloxacin MIC [2, 4]: 0.008
Cgemifloxacin MIC ([3]; P. aeruginosa 6140): 0.5 µg/mL
Cgemifloxacin MIC ([3]; P. aeruginosa 6168): 0.0625 µg/mL
Cgemifloxacin MIC ([3]; P. aeruginosa P003): 0.125 µg/mL
MIC ([3]; P. aeruginosa 6140): 8 µg/mL
MIC ([3]; P. aeruginosa 6168): 0.5 µg/mL
MIC ([3]; P. aeruginosa P003): 2 µg/mL
SMILES: CO/N=C1\CN(c2nc3c(cc2F)c(=O)c(C(=O)O)cn3C2CC2)CC1CN (racemic) [gemifloxacin, (R,S)-7-(3-aminomethyl-4-methoxyiminopyrrolidin-1-yl)-1-cyclopropyl-6-fluoro-4-oxo-1,4-dihydro-1,8-naphthyridine-3-carboxylic acid]
FICA ([3]; P. aeruginosa 6140): 0.06
FICA ([3]; P. aeruginosa 6168): 0.13
FICA ([3]; P. aeruginosa P003): 0.06

From patent US7169792B2, “Method of treating bacterial infections using gemifloxacin or a salt thereof and a β-lactam antibiotic” (priority 2002, dated 2007)
